Source: ChEMBL document CHEMBL5550121, “Expanding the ligand spaces for E3 ligases for the design of protein degraders” (Bioorg Med Chem, 2024)

Columns and labels:
[1] = Inhibition of p38 (unknown origin)
Polycomb protein EED = Polycomb protein EED (Homo sapiens, UniProt O75530); assay: Inhibition of EED (unknown origin) by ELISA based assay
Polycomb protein EED, sequence (O75530 whole entry): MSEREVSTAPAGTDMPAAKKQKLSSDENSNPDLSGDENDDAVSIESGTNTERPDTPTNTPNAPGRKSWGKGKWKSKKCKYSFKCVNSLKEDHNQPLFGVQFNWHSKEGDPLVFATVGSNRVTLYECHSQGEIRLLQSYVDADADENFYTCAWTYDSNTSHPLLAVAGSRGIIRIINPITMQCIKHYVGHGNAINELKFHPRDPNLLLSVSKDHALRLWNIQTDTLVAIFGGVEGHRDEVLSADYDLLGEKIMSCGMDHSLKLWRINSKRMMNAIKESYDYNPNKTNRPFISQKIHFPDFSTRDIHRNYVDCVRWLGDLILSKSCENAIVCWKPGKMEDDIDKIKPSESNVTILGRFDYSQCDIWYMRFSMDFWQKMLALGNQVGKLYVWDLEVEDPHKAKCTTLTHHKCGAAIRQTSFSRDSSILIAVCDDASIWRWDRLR

IC50 [1] [µM] | IC50 (Polycomb protein EED) [µM] | SMILES
11 | – | COc1cc2c(Oc3ccc(NC(=O)C4(C(=O)Nc5ccc(F)cc5)CC4)cc3F)ccnc2cc1OCCCN1CCOCC1 [FORETINIB]
– | 0.026 | Cc1ncccc1-c1cnc(NCc2c(F)ccc3c2CCO3)n2cnnc12
